Reference: patent US20250368651A1 (priority 2022, published 2025)

Key:
DNA Seq6 = experiment: Competitive FP binding assay (displacement of SMN-C2 from DNA Seq6); conditions: footnote c: FP assay for DNA Seq6; competition with SMN-C2 (0.5 μM) and DNA Seq6 (25 μM); read-out: Kd (apparent, competitive FP)
Method: A 1:2 dilution series (8 points) of each oligonucleotide was prepared in 20-30 μL water to desired concentrations (i.e., 1-128 μM). 20-30 μL 2× working solution containing the 2× assay buffer and the small-molecule ligand was added to each oligonucleotide sample in 1:1 (v/v) and mixed by pipetting for 4 times. For fluorescence polarization measurement, 20 μL of the above 1× working solution was transferred into a 384-well, black, F-bottom microplates (Greiner Bio-One) in duplicates or triplicates. The plate was equilibrated at room temperature for 5 min before being read using a microplate reader (SYNERGY H1, BioTek; Excitation/Emission=360/460 nm) at 25° C. For compound SMN-C5, a competitive binding assay was employed to measure an apparent Kd. SMN-C5 was 1:2 serial diluted for 10 concentration points starting at 750 μM in DMSO. A mixture of SMN-C2 (0.5 μM) and DNA Seq6 (25 μM) in 1× assay buffer was prepared and incubated at room temperature for 10 minutes. 3 μL of SMN-C5 solution at each concentration was added to a 42 μL SMN-C2/DNA Seq6 mixture and incubated at room temperature for 10 minutes. The mixture was then transferred into a microplate (20 μL each well) in duplicates for fluorescence polarization readout. The experimental data were analyzed using Prism 8 software (Graphpad Software, San Diego, CA, USA).

SMN2 exon 7 splicing = experiment: Cell-based SMN2 splicing assay in 293T cells (minigene); parameters: species or system human; conditions: Homo sapiens, HEK-293T; cell-based SMN2 splicing assay in 293T cells; read-out: SMN2 EC50
5′-biotinylated RNA Seq4 = experiment: Surface plasmon resonance (SPR) assay, RNA Seq4; type: binding; conditions: footnote b: SPR assay for RNA Seq4
Method: SPR experiments were performed on a Biacore T200 (GE Healthcare) instrument at 25° C. using streptavidin pre-coated SA sensor chips (GE Healthcare). The running buffer composed of 10 mM HEPES, 100 mM NaCl, 0.05% Tween 20 (w/v), 5 mM EDTA, 0.1% (v/v) DMSO at pH 6.8 was prepared freshly, filtered through the […] PVDF membrane prior to use. 5′-biotinylated RNA Seq4 was purchased from GenScript and dissolved in nuclease-free water to a concentration of 100 μM. For immobilization of the biotinylated RNA, the sensor chip was firstly conditioned with 3 consecutive 1 min injections of high salt solution (50 mM NaOH, 1M NaCl) at a flow rate of […]. Next, the biotinylated RNA was diluted 1000× in running buffer (100 nM) and applied over the streptavidin sensor chip surface at a flow rate of 10 μL/min to achieve immobilization level of about 800 RU. Finally, alkyne-PEG-biotin (50 μM in running buffer) was injected (1 min, […]) to block remaining streptavidin surface binding sites. The kinetics analysis was performed following the BiaControl Software Wizard Kinetics protocol. […] All monitored resonance signals were subtracted with signals from a non-binding reference channel. Kinetic values (Kd, ka, kd) were calculated using the BiaEvaluation Software Binding Affinity protocol with 1:1 fitting. […]

[1] = target: dsRNA Seq18 (5′ splice site of SMN2 exon 7 and U1 snRNA duplex); conditions: NMR chemical shift assay; cited from earlier work

## Cc1cn2cc(-c3cc(=O)n4cc(N5CCN(C)CC5)ccc4n3)cc(F)c2n1 [SMN-C5, 2-(8-fluoro-2-methylimidazo[1,2-a]pyridin-6-yl)-7-(4-methylpiperazin-1-yl)-4H-pyrido[1,2-a]pyrimidin-4-one]
DNA Seq6
  Kd: 5.8 ± 2.5 µM
SMN2 exon 7 splicing
  EC50: 59 ± 9 nM
5′-biotinylated RNA Seq4
  Kd: 8 µM
[1]
  Kd: 28 ± 9 µM
